In ChEMBL document CHEMBL1145186, “Extravascular transport of drugs in tumor tissue: effect of lipophilicity on diffusion of tirapazamine analogues in multicellular layer cultures” (J Med Chem, 2005):

Assay: Partition coefficient (logP) of the compound
Format: physicochemical

logP | SMILES
1.51 | COCCc1cccc(Nc2n[n+]([O-])c3ccccc3[n+]2[O-])c1
1.43 | [O-][n+]1nc(Nc2ccccc2)[n+]([O-])c2ccccc21
0.441 | Nc1n[n+]([O-])c2cc(Cl)ccc2[n+]1[O-]
0.24 | Cc1cccc2c1[n+]([O-])nc(N)[n+]2[O-]
0.127 | Cc1ccc2c(c1)[n+]([O-])nc(N)[n+]2[O-]
-1.38 | CS(=O)(=O)c1cccc2c1[n+]([O-])nc(N)[n+]2[O-]
-0.102 | Nc1n[n+]([O-])c2cccc(Cl)c2[n+]1[O-]
0.48 | Nc1n[n+]([O-])c2c(C(F)(F)F)cccc2[n+]1[O-]
0.068 | Cc1ccc2c(c1)[n+]([O-])c(N)n[n+]2[O-]
-1.15 | CS(=O)(=O)c1ccc2c(c1)[n+]([O-])nc(N)[n+]2[O-]
0.166 | Nc1n[n+]([O-])c2c(Cl)cccc2[n+]1[O-]
-2.62 | OC[C@@H](O)[C@@H](O)[C@H](O)[C@H](O)CO [MANNITOL]
-0.342 | Nc1n[n+]([O-])c2ccccc2[n+]1[O-] [TIRAPAZAMINE]
-2.01 | NC(N)=O [UREA]

SMILES | logP
CCN(CC)c1cccc2c1[n+]([O-])nc(N)[n+]2[O-] | 0.83
Nc1n[n+]([O-])c2cc(C(F)(F)F)ccc2[n+]1[O-] | 0.82
O=c1c2ccccc2[nH]c2ccccc12 [ACRIDONE] | 2.98
